Experiment [1] deals with mesangial cell line (1097). The experiment is described as follows: TGF-β induced 3H-proline incorporation in cultured rat mesangial cells (Example 2). The experiment is classed as cell-based, Sprague-Dawley rats. Particulars: renal mesangial cells, from 30 to 100 μM. How it is done:
The anti-fibrotic effects of 3-methoxy-4-propargyloxybenzaldehyde (FT011) in a renal cell line were tested by measuring proline incorporation after transforming growth factor-β stimulation.
A well-characterized cloned mesangial cell line (1097) isolated from Sprague-Dawley rats was used between passages 30 and 40. Cells were cultured in Dulbecco's Modified Eagle's (DME) medium (Invitrogen, Grand Island, N.Y.) with heat-inactivated fetal bovine serum (FBS), 100 u/mL penicillin and 100 ug/mL streptomycin in a humidified 5% CO2 atmosphere at 37° C.
To compare the effects of tranilast and FT011 on collagen production in vitro, incorporation of tritiated proline was used. Mesangial cells were plated at low density into 24-well culture plates in DME/5% FBS and allowed to adhere overnight. The subconfluent cells were starved overnight in DME/0.5% FBS and […] L-ascorbic acid (Sigma-Aldrich). Tranilast or FT011 was then added to the wells, followed 4 hours later by L-[2,3,4,5-^3H]-proline, 0.5 μCi/well (Amersham) and TGF-β1, 5 ng/ml (R & D systems). Mesangial cells were harvested 48 hours post-stimulation, washed three times with ice cold PBS, and incubated with 10% trichloroacetic acid (TCA) for 30 minutes on ice, followed by a wash in ice cold 10% TCA. Cells were then solubilised in […] 1M NaOH. […]

Experiment [2] deals with Neonatal rat cardiac fibroblasts (NCFs). The experiment is described as follows: NCF TGF-β collagen synthesis, 3H-proline incorporation (Example 6). The experiment is classed as cell-based. As for the experimental part:
Neonatal SD rat cardiac myocytes (NCMs) and fibroblasts (NCFs) were isolated from one-day-old pups with enzymatic digestion as described in detail previously. NCFs were seeded and maintained in high-glucose (25 mmol/L) Dulbecco's modified Eagle's medium (DMEM) (Invitrogen Mount Waverley, Vic, Australia) in the presence of 1% antibiotic/antimycotic (AB/AM) and 10% fetal bovine serum (FBS) (JRH biosciences, Kansas, USA). NCFs were used at passage 2 [31]. Purified NCMs were seeded (1000 cells/mm^2) in 6-well plates and then maintained in serum-free DMEM (Invitrogen, NY, USA) supplemented with insulin and transferrin as described previously (4). Bromodeoxyuridine was included for the first 3 days. 50 mmol/L KCl was added to the medium to prevent spontaneous contraction characteristic of the plated NCMs.
NCFs collagen synthesis assays were performed as described previously. Briefly, NCFs plated at a density of 50,000 cells/well in 12-well plate and incubated overnight. NCFs were then serum starved for 24 hours in high-glucose DMEM. […]
For collagen synthesis, 1 μCi of [^3H]-Proline was added to each well and incubated for further 48 hours before harvest. Cells were harvested by precipitation with 10% TCA on ice for 30 min, before solubilisation with 0.75 mL of 1 mol/L NaOH overnight at 4° C. The samples were then neutralized with 1 mol/L HCl and ^3H level were counted with 10 ml scintillation fluid on a beta-counter to determine [^3H]-proline incorporation.

The subject of experiment [3] is neonatal SD rat cardiac fibroblasts. The experiment is described as follows: Angiotensin II-stimulated fibrosis (proline incorporation) in neonatal cardiac fibroblasts (Example 4). The class given is cell-based. As for the experimental part: (§1) Matrix synthesis may be stimulated by both angiotensin II or transforming growth factor beta (TGF-β).
(§2) Neonatal SD rat cardiac fibroblasts (NCFs) were isolated from one-day-old pups with enzymatic digestion. NCFs were purified by percoll gradient and seeded with DMEM in the present of 1% antibiotic/antimycotic (AB/AM) and 10% fatal bovine serum (FBS). NCFs were then subcultured when they are about 80% confluence. The second passage of NCFs was used for the assays.
(§3) NCFs were seeded at 25,000 cells/well in 12-well plates and incubated at 37° C. and 5% CO2 overnight in DMEM with 1% AB/AM and 10% FBS. Cells were then washed with DMEM and then the media replaced with DMEM/F12 with 1% AB/AM, 0.5% Bovine Serum Albumin (BSA) and Vitamin C, before being incubated at 37° C. and 5% CO2 for 24 hours.
(§4) The effect of FT011 on TGF-β- or angiotensin II-stimulated fibrosis in the neonatal SD rat cardiac fibroblasts was investigated.

In experiment [4] the test system is STZ diabetic (mRen-2)27 rats. The experiment is described as follows: Diabetic (mRen-2)27 rats treated with FT011. The experiment is classed as in vivo. The following applies: for GFR: 16 weeks.
Protocol: Forty six-week old female, heterozygous (mRen-2)27 rats (St. Vincent's Hospital Animal House, Melbourne, Australia) were assigned to receive either 55 mg/kg of STZ (Sigma, St. Louis, USA) diluted in 0.1 M citrate buffer, pH 4.5 or citrate buffer alone (non-diabetic) by tail vein injection following an overnight fast. […] Treatment commenced within 24 hours of STZ or citrate buffer injection.
Rats were individually housed in metabolic cages at 4, 8 12 and 16 weeks, habituated for 2 to 3 hours, and urine collected over 24 hours. […] After 24 hours in metabolic cages, an aliquot of urine (5 mL) was collected from the 24-hour urine sample and stored at −70° C. for subsequent analysis of albumin by radio-immunoassay, as previously performed [36]. Prior to sacrifice, the glomerular filtration rate (GFR) was determined by injecting a single shot of 99Tc-DTPA into the tail vein and sampling the blood after 43 minutes, as previously described [37].
Rats were anaesthetised (Nembutal 60 mg/kg body wt i.p. Boehringer-Ingelheim, Australia). […] Kidneys were excised, decapsulated, sliced transversely, half of the kidney snap frozen for tissue RNA assay and other half immersed fix with formalin and paraffin-embedded for subsequent light microscopic evaluation.
Histopathological changes in kidney and heart were assessed in a masked protocol.
In 4 μm kidney sections stained with PAS, 150 to 200 glomeruli from rats were examined in a masked protocol. […] A glomerulosclerotic index (GSI) was then calculated using the Formula (4):
To assess the tubulointerstitial fibrosis in kidney sections were stained with modified Masson's trichrome. Briefly, 5 random non-overlapping fields from 10 rats per group were captured and digitised using a BX50 microscope attached to a Fujix HC5000 digital camera. Digital images were then loaded onto a Pentium III IBM computer as described as above. An area of red in heart and blue in kidney on picrosirius red and trichrome-stained section, respectively, were selected for its color range and the proportional area of tissue with this range of color was then quantified. Calculation of the proportional area stained red and blue (matrix) was then determined using image analysis (AIS, Analytical imaging Station Version 6.0, Ontario, Canada) [37, 39].
In the next experiment the test system is rat mesangial cell line. The experiment is described as follows: TGF-β stimulated 3H-proline incorporation in mesangial cells (Example 5). The class given is cell-based. Particulars: for Mesangial Cell Assay TGF-β % reduction of TGF-β stimulation_proline inc.: 5 ng/mL TGF-β1, 44 h.
The test system of experiment [5] is neonatal SD rat cardiac fibroblasts. The experiment is described as follows: TGF-β-stimulated fibrosis (proline incorporation) in neonatal cardiac fibroblasts (Example 4). The class given is cell-based. How it is done:
as §1, §2, §3, §4

The mark [6] stands for this setting: diabetic rats, 100 mg/kg bid gavage.

In the case of `C#CCOc1ccc(/C=C/C(=O)Nc2ccccc2C(=O)O)cc1OC` [Analogue 11], in experiment [1], the “proline incorporation after TGF-β stimulation” value is “significantly reduce”. Moreover, the entries for the “NCF TGF-β Collagen Synthesis” value in experiment [2] (@ 30 μM) and in experiment [2] (@ 100 μM) were 32% @ 30 μM and 87% @ 100 μM, respectively. The “angiotensin II-stimulated fibrosis (proline incorporation)” value in experiment [3] is listed as “inhibited”. Further, the GFR in experiment [4] (diabetic rats + FT011 100 mg/kg bid gavage) amounted to 5.90 ± 0.20 mL/min; in experiment [4] (non-diabetic control rats + FT011 100 mg/kg bid gavage) it was 3.63 ± 0.08 mL/min. Besides, the “extent of glomerulosclerosis (PAS-stained sections)” value in experiment [4] (setting [6]) was “reduction”. Moreover, the rise in albuminuria entry in experiment [4] (setting [6]) is recorded as “significantly attenuated”. In addition, in experiment [4] (setting [6]), the “tubular (tubulointerstitial) fibrosis (trichrome-stained sections)” value is given as “reduction”. In addition, the “Mesangial Cell Assay TGF-β % reduction of TGF-β stimulation_proline inc.” value is on record as 15% @ 3 with rat mesangial cell line (@ 3 μM), 20-50% @ 10 in the experiment with rat mesangial cell line (@ 10 μM), 50-75% @ 30 with rat mesangial cell line (@ 30 μM) and 60-100% @ 100 in the experiment on rat mesangial cell line (@ 100 μM). Further, the Collagen synthesis result with rat mesangial cell line (inhibition ranked against tranilast (T) or FT11) is “>T”. Besides, the “TGF-β-stimulated fibrosis (proline incorporation)” value in experiment [5] is reported as “inhibited”.

The values above are taken from patent US9561201B2, “Therapeutic compounds” (Fibrotech Therapeutics Pty Ltd, priority 2006, dated 2017).
